Results from patent EP0399422A1, “Benzocycloalkane derivatives and production thereof” (Takeda Chemical Industries, Ltd., priority 1989, dated 1990).

Test system: Acyl-CoA:cholesterol acyl transferase (ACAT)
Assay: Acyl-CoA:cholesterol acyl transferase (ACAT) inhibiting activity
Assay type: biochemical, male Sprague-Dawley rats
Design: tested at 1 µM
Details: inhibition of labeled cholesterol ester formation at 10⁻⁶ M of the test compounds; small intestine mucosa microsome fraction
Procedure: An ACAT enzyme preparation was obtained from the small intestine mucosa microsome fraction from male Sprague-Dawley rats of 6 weeks of age fasted for 20 hours, as described by Heider et al. [Journal of Lipid Research, 24, 1127 (1982)].
The ACAT activity was calculated by determining the yield of a labeled cholesterol ester from [1-¹⁴C]oleoyl-CoA and endogenous cholesterol using the method of Helgerud et al. [Journal of Lipid Research, 22, 271 (1981)].
The inhibition percentages of the labeled cholesterol ester formation at 10⁻⁶ M of the test compounds are shown in Table 1 as ACAT inhibiting activity indices.

Row | % ACAT inhibition [%] | Structure (SMILES)
1 | 65 | O=C(Nc1ccc(F)cc1F)N(Cc1ccccc1)C1Cc2ccccc2C1 [Example 2, N-Benzyl-N′-(2,4-difluorophenyl)-N-(2-indanyl)urea]
2 | 76 | O=C(Nc1ccc(F)cc1F)N(Cc1ccc(Cl)cc1)C1Cc2ccccc2C1 [Example 5, N-(4-Chlorobenzyl)-N′-(2,4-difluorophenyl)-N-(2-indanyl)urea]
3 | 80 | CC(c1ccccc1)N(C(=O)Nc1ccc(F)cc1F)C1Cc2ccccc2C1 (stereo not drawn) [Example 6, N-(2,4-Difluorophenyl)-N′-(2-indanyl)-N′-(1-phenylethyl)urea]
4 | 72 | CCC(c1ccccc1)N(C(=O)Nc1ccc(F)cc1F)C1Cc2ccccc2C1 (stereo not drawn) [Example 7, N-(2,4-Difluorophenyl)-N′-(2-indanyl)-N′-(1-phenylpropyl)urea]
5 | 53 | O=C(Nc1ccc(F)cc1F)N(C1Cc2ccccc2C1)C(c1ccccc1)c1ccccc1 [Example 9, N-(2,4-Difluorophenyl)-N′-(2-indanyl)-N′-diphenyl methylurea]
6 | 72 | Cc1ccccc1CN(C(=O)Nc1ccc(F)cc1F)C1Cc2ccccc2C1 [Example 10, N-(2,4-Difluorophenyl)-N′-(2-indanyl)-N′-(2-methylbenzyl)urea]
7 | 64 | Cc1cccc(CN(C(=O)Nc2ccc(F)cc2F)C2Cc3ccccc3C2)c1 [Example 11, N-(2,4-Difluorophenyl)-N′-(2-indanyl)-N′-(3-methylbenzyl)urea]
8 | 77 | Cc1ccc(CN(C(=O)Nc2ccc(F)cc2F)C2Cc3ccccc3C2)cc1 [Example 12, N-(2,4-Difluorophenyl)-N′-(2-indanyl)-N′-(4-methylbenzyl)urea]
9 | 86 | CC(C)c1ccc(CN(C(=O)Nc2ccc(F)cc2F)C2Cc3ccccc3C2)cc1 [Example 13, N-(4-Isopropylbenzyl)-N′-(2,4-difluorophenyl)-N-(2-indanyl)urea]
10 | 88 | Cc1ccc(CN(C(=O)Nc2ccc(F)cc2F)C2Cc3ccccc3C2)c(C)c1 [Example 15, N-(2,4-Difluorophenyl)-N′-(2-indanyl)-N′-(2,4-dimethylbenzyl)urea]
11 | 86 | Cc1ccc(C)c(CN(C(=O)Nc2ccc(F)cc2F)C2Cc3ccccc3C2)c1 [Example 16, N-(2,4-Difluorophenyl)-N′-(2-indanyl)-N′-(2,5-dimethylbenzyl)urea]
12 | 75 | Cc1cc(C)c(CN(C(=O)Nc2ccc(F)cc2F)C2Cc3ccccc3C2)c(C)c1 [Example 17, N-(2,4-Difluorophenyl)-N′-(2-indanyl)-N′-(2,4,6-trimethylbenzyl)urea]
13 | 55 | COc1ccccc1CN(C(=O)Nc1ccc(F)cc1F)C1Cc2ccccc2C1 [Example 19, N-(2,4-Difluorophenyl)-N′-(2-indanyl)-N′-(2-methoxybenzyl)urea]
14 | 72 | COc1ccc(CN(C(=O)Nc2ccc(F)cc2F)C2Cc3ccccc3C2)c(OC)c1 [Example 20, N-(2,4-Difluorophenyl)-N′-(2-indanyl)-N′-(2,4-dimethoxybenzyl)urea]
15 | 55 | COc1cc(CN(C(=O)Nc2ccc(F)cc2F)C2Cc3ccccc3C2)cc(OC)c1OC [Example 22, N-(2,4-Difluorophenyl)-N′-(2-indanyl)-N′-(3,4,5-trimethoxybenzyl)urea]
16 | 57 | O=C(Nc1ccc(F)cc1F)N(Cc1cccs1)C1Cc2ccccc2C1 [Example 23, N-(2,4-Difluorophenyl)-N′-(2-indanyl)-N′-(2-thienylmethyl)urea]
17 | 60 | O=C(Nc1ccc(F)cc1F)N(CC1CCCCC1)C1Cc2ccccc2C1 [Example 26, N-Cyclohexylmethyl-N′-(2,4-difluorophenyl)-N-(2-indanyl)urea]
18 | 58 | Cc1cc(C)c2c(c1)CC(N(Cc1ccccc1)C(=O)Nc1ccc(F)cc1F)C2 (stereo not drawn) [Example 27, N-Benzyl-N′-(2,4-difluorophenyl)-N-(4,6-dimethyl-2-indanyl)urea]
